The values below come from ChEMBL document CHEMBL1144001, “Synthesis and GABA(A) receptor activity of oxygen-bridged neurosteroid analogs” (Bioorg Med Chem, 2008).

In general, IC50 refers to the midpoint of a concentration-inhibition curve. Low values mean greater potency in that assay, high ones weaker potency in that assay.

The nature of the assay: Displacement of [3H]TBOB from GABAA receptor in Sprague-Dawley rat cerebral cortex. In kind it is tissue-based. Background: In a radioligand displacement assay an active substance lowers the binding of a labelled ligand.
`CC(=O)[C@H]1CC[C@H]2[C@@H]3CCC4=C[C@H](O)CC[C@@]45CO[C@@H](C[C@]12C)[C@@H]35`: the IC50 was 518 nM.

For the compound `CC(=O)[C@H]1CC[C@H]2[C@@H]3CC[C@@H]4C[C@H](O)CC[C@]4(C)[C@H]3CC[C@]12C` [ELTANOLONE], the IC50 turned out to be 830 nM.

Consider `CC(=O)[C@H]1CC[C@H]2[C@@H]3CC[C@H]4C[C@H](O)CC[C@]4(C)[C@H]3CC[C@]12C` [BREXANOLONE], for which the IC50 was 329 nM.

`CC(=O)[C@H]1CC[C@H]2[C@@H]3CC[C@@H]4C[C@H](O)C[C@@H]5O[C@H](C[C@]12C)[C@@H]3[C@]45C` returned an IC50 of 420 nM.

In turn, `CC(=O)[C@H]1CC[C@H]2[C@@H]3CC[C@H]4C[C@H](O)C[C@H]5O[C@H](C[C@]12C)[C@@H]3[C@]45C` showed an IC50 of 741 nM.
